{"source": "patent US20100324019A1", "about": "(priority 2007, published 2010)", "format_in_all_cases": "in vivo, human", "key": {"[1]": {"system": "healthy subjects by MTHFR C677T genotype", "test": "Blood pressure response to riboflavin intervention in healthy individuals", "conditions": "for Diastolic blood pressure / Systolic blood pressure: healthy subjects, median", "description": "(§1) Blood pressure measurements were recorded as the mean of two separate measurements taken 15 minutes apart using an Omcron 705CP electronic blood pressure monitor (Medisave, Dorset, UK). Weight (kg) and height in (m), were used to calculate BMI (weight (kg)/height^2 (m)). Waist circumference (cm) was also measured. All measurements were made using Seca approved equipment (Brosch Direct, Ltd, Peterborough, UK).\nMeasurements were taken and recorded according to the procedures described in Example 1 above. The results obtained, namely the baseline characteristics of healthy subjects pre-screened and age-matched for MTHFR genotype (n=124), are shown in Table 4.\nA placebo controlled intervention study in 81 healthy individuals was carried out."}, "[2]": {"system": "premature CVD patients by MTHFR C677T genotype", "test": "Plasma homocysteine (immunoassay) in 16-week riboflavin intervention trial, premature CVD patients", "conditions": "mean (SD)", "description": "(§2) Ethical approval was granted by both the Research Ethical Committee of the University of Ulster and Altnagelvin Hospital Trust, Londonderry, Northern Ireland. Premature CVD patients, males aged 55 years and females aged 65 years and under at time of event were recruited from the cardiac department of Altnagelvin hospital. Patients were indicated by a previous myocardial infarction (MI) or angina diagnosed by ECG changes. Potential participants (n=404) were screened for MTHFR genotype on the basis of a buccal swab sample. Those with the TT genotype were identified (n=54); these were age and sex matched with a similar number of patients with the CC or CT genotypes, resulting in a total of 197 patients who were invited to participate in the current intervention study (see FIG. 1). Exclusion criteria for all subjects were history of hepatic or renal disease, consumers of B-vitamin supplements, those taking medication known to interfere with folate metabolism, at least 3 months post MI prior to blood sampling. All volunteers provided written informed consent and completed a health and medical/lifestyle questionnaire which included questions regarding family history of CVD and smoking habits.\n(§3) The study was a 16-week placebo controlled intervention trial. […] Non-fasting blood samples were collected at screening and post intervention either at Altnagelvin hospital, their workplace or their own homes.\nOne 30 ml blood sample was collected from each patient, one 9 ml EDTA tube for plasma and washed red cells, one 4 ml EDTA tube for the preparation of red blood cell lysates and the measurement of haemoglobin (HB) and packed cell volume (PCV); one 8 ml serum separation tube for serum extraction, one 5 ml serum separation tube for lipid profile analysis and one 4 ml sodium citrate tube for coagulation screening. The 9 ml EDTA was immediately wrapped in tin foil and placed on ice. Samples were centrifuged within 2 hours of sampling at 3000 rpm for 15 minutes. Plasma was removed and stored at −80° C. for plasma homocysteine and PLP analysis. The buffy layer was removed for confirmation of MTHFR genotyping and stored at −20° C. The remaining red blood cells were thrice washed with phosphate buffered saline (PBS) with the supernatant and remaining buffy layer being discarded after each wash. […] Serum was removed and stored at −80° C. for serum folate.\nPlasma homocysteine was measured by immunoassay using the Abbott Imx analyser (Leino A., 1999, “Fully automated measurement of total homocysteine in plasma and serum on the Abbott IMx analyzer.” Clin. Chem, 45, 569-71). Serum folate and red blood cell folate concentrations were determined by microbiological assay using the cryopreserved, microtitre plate method (Molloy et al, 1997, “Microbiological assay for serum, plasma, and red cell folate using cryopreserved, microtiter plate method.” Methods Enzymol, 281, 43-53). Plasma PLP was determined by reverse-phase high pressure liquid chromatography (HPLC) with fluorescence detection (Bates et al, 1999, “Plasma pyridoxal phosphate and pyridoxic acid and their relationship to plasma homocysteine in a representative sample of British men and women aged 65 years and over.” British Journal of Nutrition, 1, 191-201). Identification of the MTHFR C677T genotype was carried out using the polymerase chain reaction (PCR) amplification followed by HinF1 (Frosst et al, 1995, “A candidate genetic risk factor for vascular disease: A common mutation in methylenetetrahydrofolate reductase.” Nat Genetc, 10, 111-113). […] Coagulation screening was measured by ACI Instrumentation Laboratories. HB and PCV were measured using Sysmex XE-2100 (Sysmex, UK Ltd. Milton Keynes UK) analyser and lipid profiles were measured using Abbott Architect CI 8200 analyser (Abbott Laboratories, USA). For all assays, samples were analysed blind, in duplicate and within 1 year of collection. […]"}, "[3]": {"system": "premature CVD patients by MTHFR C677T genotype", "test": "Blood pressure in 16-week placebo controlled riboflavin intervention trial, premature CVD patients", "conditions": "for Diastolic blood pressure / Systolic blood pressure: mean (SD)", "description": "as §2, §3, §1\nAll statistical analysis was performed using the SPSS statistical package for the social sciences (version 11.0, SPSS UK Ltd., Chersey, United Kingdom). For normalisation purposes variables were log-transformed as appropriate prior to statistical analysis. One way ANOVA with Tukey's post hoc test was used to examine the differences in the baseline characteristics among the genotype groups. Categorical data were assessed using chi squared analysis. Correlation analysis was performed using bivariate Pearson correlation coefficients. […] P values<0.05 were considered significant."}, "[4]": {"conditions": "CC genotype, After riboflavin 1.6 mg/d, 16 weeks"}, "[5]": {"conditions": "CC genotype, Before intervention"}, "[6]": {"conditions": "CT genotype, After riboflavin 1.6 mg/d, 16 weeks"}, "[7]": {"conditions": "CT genotype, Before intervention"}, "[8]": {"conditions": "TT genotype, After riboflavin 1.6 mg/d, 16 weeks"}, "[9]": {"conditions": "TT genotype, Before intervention"}, "[10]": {"conditions": "CC genotype, premature CVD patients, Post 16 weeks riboflavin 1.6 mg/day, n = 32"}, "[11]": {"conditions": "CC genotype, premature CVD patients, Pre intervention, n = 32"}, "[12]": {"conditions": "CT genotype, premature CVD patients, Post 16 weeks riboflavin 1.6 mg/day, n = 35"}, "[13]": {"conditions": "CT genotype, premature CVD patients, Pre intervention, n = 35"}, "[14]": {"conditions": "TT genotype, premature CVD patients, 16 weeks low-dose riboflavin"}, "[15]": {"conditions": "TT genotype, premature CVD patients, Post 16 weeks riboflavin 1.6 mg/day, n = 25"}, "[16]": {"conditions": "TT genotype, premature CVD patients, Pre intervention, n = 25"}, "[17]": {"conditions": "estimated from the magnitude of blood pressure lowering in TT patients"}}}
{"compound": "Cc1cc2nc3c(=O)[nH]c(=O)nc-3n(C[C@H](O)[C@H](O)[C@H](O)CO)c2cc1C", "note": "[Riboflavin, riboflavin]", "values": [{"measurement": "effect on systolic or diastolic blood pressure", "setting": "[1]; healthy cohort with the TT genotype, 1.6 mg/day for 16 weeks", "value": "no significant systolic or diastolic blood pressure lowering effect"}, {"measurement": "effect on diastolic blood pressure", "setting": "[1]; healthy individuals, CC group, 1.6 mg/day for 16 weeks", "value": "increase"}, {"measurement": "Diastolic blood pressure", "setting": "[1]; [4]", "value": 86.5, "unit": "mmHg"}, {"measurement": "Systolic blood pressure", "setting": "[1]; [4]", "value": 143.5, "unit": "mmHg"}, {"measurement": "Diastolic blood pressure", "setting": "[1]; [5]", "value": 80.5, "unit": "mmHg"}, {"measurement": "Systolic blood pressure", "setting": "[1]; [5]", "value": 137.0, "unit": "mmHg"}, {"measurement": "Diastolic blood pressure", "setting": "[1]; [6]", "value": 89.0, "unit": "mmHg"}, {"measurement": "Systolic blood pressure", "setting": "[1]; [6]", "value": 150.0, "unit": "mmHg"}, {"measurement": "Diastolic blood pressure", "setting": "[1]; [7]", "value": 87.0, "unit": "mmHg"}, {"measurement": "Systolic blood pressure", "setting": "[1]; [7]", "value": 150.0, "unit": "mmHg"}, {"measurement": "Diastolic blood pressure", "setting": "[1]; [8]", "value": 88.5, "unit": "mmHg"}, {"measurement": "Systolic blood pressure", "setting": "[1]; [8]", "value": 145.0, "unit": "mmHg"}, {"measurement": "Diastolic blood pressure", "setting": "[1]; [9]", "value": 88.5, "unit": "mmHg"}, {"measurement": "Systolic blood pressure", "setting": "[1]; [9]", "value": 139.5, "unit": "mmHg"}, {"measurement": "Homocysteine", "setting": "[2]; CC genotype, Post 16 weeks riboflavin 1.6 mg/day, n = 32", "value": "9.8 (3.6) μmol/l"}, {"measurement": "Homocysteine", "setting": "[2]; CC genotype, Pre intervention, n = 32", "value": "10.1 (3.9) μmol/l"}, {"measurement": "Homocysteine", "setting": "[2]; CT genotype, Post 16 weeks riboflavin 1.6 mg/day, n = 35", "value": "10.6 (6.3) μmol/l"}, {"measurement": "Homocysteine", "setting": "[2]; CT genotype, Pre intervention, n = 35", "value": "10.5 (3.8) μmol/l"}, {"measurement": "Homocysteine", "setting": "[2]; TT genotype, Post 16 weeks riboflavin 1.6 mg/day, n = 25", "value": "10.0 (3.1) μmol/l"}, {"measurement": "Homocysteine", "setting": "[2]; TT genotype, Pre intervention, n = 25", "value": "11.3 (4.4) μmol/l"}, {"measurement": "Diastolic blood pressure", "setting": "[3]; [10]", "value": "80.4 (12.0) mmHg"}, {"measurement": "Systolic blood pressure", "setting": "[3]; [10]", "value": "133.4 (15.3) mmHg"}, {"measurement": "Diastolic blood pressure", "setting": "[3]; [11]", "value": "80.1 (8.9) mmHg"}, {"measurement": "Systolic blood pressure", "setting": "[3]; [11]", "value": "134.3 (14.9) mmHg"}, {"measurement": "effect on blood pressure (either systolic or diastolic)", "setting": "[3]; CC genotype, premature CVD patients, following riboflavin administration", "value": "no significant reduction"}, {"measurement": "Diastolic blood pressure", "setting": "[3]; [12]", "value": "84.2 (9.2) mmHg"}, {"measurement": "Systolic blood pressure", "setting": "[3]; [12]", "value": "135.4 (15.4) mmHg"}, {"measurement": "Diastolic blood pressure", "setting": "[3]; [13]", "value": "86.0 (10.8) mmHg"}, {"measurement": "Systolic blood pressure", "setting": "[3]; [13]", "value": "136.2 (16.9) mmHg"}, {"measurement": "decrease in diastolic blood pressure", "setting": "[3]; [14]", "value": 8, "unit": "units"}, {"measurement": "decrease in systolic blood pressure", "setting": "[3]; [14]", "value": 11, "unit": "units"}, {"measurement": "effect on systolic and diastolic blood pressure", "setting": "[3]; [14]", "value": "significant lowering"}, {"measurement": "Diastolic blood pressure", "setting": "[3]; [15]", "value": "80.2 (14.2) mmHg"}, {"measurement": "Systolic blood pressure", "setting": "[3]; [15]", "value": "131.6 (20.9) mmHg"}, {"measurement": "Diastolic blood pressure", "setting": "[3]; [16]", "value": "88.1 (14.2) mmHg"}, {"measurement": "Systolic blood pressure", "setting": "[3]; [16]", "value": "142.8 (22.1) mmHg"}, {"measurement": "lowering of risk of heart disease estimated from meta-analyses", "setting": "[3]; [17]", "value": 29, "unit": "%"}, {"measurement": "lowering of risk of stroke estimated from meta-analyses", "setting": "[3]; [17]", "value": 46, "unit": "%"}]}
